The values below come from ChEMBL document CHEMBL5360652, “Drug Discovery Targeting Nuclear Receptor Binding SET Domain Protein 2 (NSD2)” (J Med Chem, 2023).

By IC50 is commonly meant the concentration needed to halve the response being measured. For orientation: Kd means a measure of binding affinity in units of concentration. The term CC50 denotes the concentration at which the toxic effect on the cells reaches its halfway point. A word on the inhibition: it is the share of the control response that was lost under treatment. Read a high inhibition as a response far below the control. By Emax is commonly meant the maximal effect, on the per cent scale that the assay sets. As a reminder, the EC50 is the concentration giving half of the maximal effect. The low end stands for greater potency, the high end for weaker potency.

Structures can show the parent of a compound that is named as a salt.

Assay [1] has as its target T1, Histone-lysine N-methyltransferase NSD2 (Homo sapiens, UniProt O96028).
T1 sequence (O96028 whole entry): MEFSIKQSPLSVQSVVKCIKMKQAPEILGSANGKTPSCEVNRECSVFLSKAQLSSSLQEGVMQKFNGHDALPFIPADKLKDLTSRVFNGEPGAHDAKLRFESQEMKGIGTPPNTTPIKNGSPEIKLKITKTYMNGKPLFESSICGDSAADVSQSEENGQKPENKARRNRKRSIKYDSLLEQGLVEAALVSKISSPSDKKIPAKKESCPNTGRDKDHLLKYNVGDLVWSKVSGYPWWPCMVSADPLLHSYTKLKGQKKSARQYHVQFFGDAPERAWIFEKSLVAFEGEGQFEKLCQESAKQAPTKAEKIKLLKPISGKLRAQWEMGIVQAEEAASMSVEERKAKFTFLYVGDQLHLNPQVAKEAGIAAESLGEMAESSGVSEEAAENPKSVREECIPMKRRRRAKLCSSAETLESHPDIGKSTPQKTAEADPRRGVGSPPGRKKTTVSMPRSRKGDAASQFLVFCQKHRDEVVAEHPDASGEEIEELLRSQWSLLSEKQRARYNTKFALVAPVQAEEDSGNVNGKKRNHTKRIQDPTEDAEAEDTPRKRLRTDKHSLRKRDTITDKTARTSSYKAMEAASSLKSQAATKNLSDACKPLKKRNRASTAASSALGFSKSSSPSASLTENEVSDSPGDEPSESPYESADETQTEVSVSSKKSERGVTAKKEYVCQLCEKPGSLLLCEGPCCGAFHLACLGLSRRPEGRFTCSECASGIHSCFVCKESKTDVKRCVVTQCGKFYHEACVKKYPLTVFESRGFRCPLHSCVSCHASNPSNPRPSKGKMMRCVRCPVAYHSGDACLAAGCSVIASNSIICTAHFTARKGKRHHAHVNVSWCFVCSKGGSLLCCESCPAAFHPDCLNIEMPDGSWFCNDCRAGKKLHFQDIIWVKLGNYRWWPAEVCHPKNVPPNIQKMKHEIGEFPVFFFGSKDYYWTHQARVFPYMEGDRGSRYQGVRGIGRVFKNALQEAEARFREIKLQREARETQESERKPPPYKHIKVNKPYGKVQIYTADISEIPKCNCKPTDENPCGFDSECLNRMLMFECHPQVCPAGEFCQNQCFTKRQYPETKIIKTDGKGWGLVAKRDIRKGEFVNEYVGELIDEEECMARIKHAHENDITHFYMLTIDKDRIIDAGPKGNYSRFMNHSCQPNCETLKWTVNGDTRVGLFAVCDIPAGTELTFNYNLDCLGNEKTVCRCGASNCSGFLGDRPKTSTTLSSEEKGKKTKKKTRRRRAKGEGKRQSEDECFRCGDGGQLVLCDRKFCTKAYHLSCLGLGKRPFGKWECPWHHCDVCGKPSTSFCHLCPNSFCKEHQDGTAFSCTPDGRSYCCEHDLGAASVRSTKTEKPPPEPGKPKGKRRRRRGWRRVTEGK
Description: Inhibition of NSD2 (unknown origin).

The target of assay [2] is T2, Histone-lysine N-methyltransferase, H3 lysine-36 specific (Homo sapiens, UniProt Q96L73). Description: Binding affinity to NSD1 (unknown origin) assessed as dissociation constant by ITC assay. On the technique in general: Isothermal titration calorimetry measures the heat released or taken up as one component is titrated into another.
The target in assay [3] is T2, Histone-lysine N-methyltransferase, H3 lysine-36 specific. Description: Inhibition of N-terminal hexa-histidine tagged NSD1 SET domain (1852 to 2105 residues) (unknown origin) expressed in Escherichia coli incubated for 2 hrs by ITC method.
In assay [4] the target is Histone-lysine N-methyltransferase NSD2 (Homo sapiens, UniProt O96028, T1150A). In words: Inhibition of NSD2 T1150A mutant (unknown origin).
The target of assay [5] is Histone-lysine N-methyltransferase NSD2 (Homo sapiens, UniProt O96028, E1099K). In words: Inhibition of NSD2 E1099K mutant (unknown origin).
The next assay deals with U2OS. Description: Cytotoxicity against human U2OS cells assessed as cell growth inhibition. Format: functional.
Assay [6] deals with T2, Histone-lysine N-methyltransferase, H3 lysine-36 specific. In words: Inhibition of human recombinant NSD1 incubated for 2 hrs by AlphaLISA method. Background: Alpha assays give light when donor and acceptor beads are brought close together.
Assay [7] has as its target T3, Histone-lysine N-methyltransferase NSD2 (Homo sapiens) (UniProt O96028).
T3 sequence (whole entry): T1 sequence (O96028 whole entry)
In words: Inhibition of NSD2 (unknown origin) at 50 uM relative to control.

The target in assay [8] is T4, Histone-lysine N-methyltransferase NSD3 (Homo sapiens, UniProt Q9BZ95).
T4 sequence (Q9BZ95 whole entry): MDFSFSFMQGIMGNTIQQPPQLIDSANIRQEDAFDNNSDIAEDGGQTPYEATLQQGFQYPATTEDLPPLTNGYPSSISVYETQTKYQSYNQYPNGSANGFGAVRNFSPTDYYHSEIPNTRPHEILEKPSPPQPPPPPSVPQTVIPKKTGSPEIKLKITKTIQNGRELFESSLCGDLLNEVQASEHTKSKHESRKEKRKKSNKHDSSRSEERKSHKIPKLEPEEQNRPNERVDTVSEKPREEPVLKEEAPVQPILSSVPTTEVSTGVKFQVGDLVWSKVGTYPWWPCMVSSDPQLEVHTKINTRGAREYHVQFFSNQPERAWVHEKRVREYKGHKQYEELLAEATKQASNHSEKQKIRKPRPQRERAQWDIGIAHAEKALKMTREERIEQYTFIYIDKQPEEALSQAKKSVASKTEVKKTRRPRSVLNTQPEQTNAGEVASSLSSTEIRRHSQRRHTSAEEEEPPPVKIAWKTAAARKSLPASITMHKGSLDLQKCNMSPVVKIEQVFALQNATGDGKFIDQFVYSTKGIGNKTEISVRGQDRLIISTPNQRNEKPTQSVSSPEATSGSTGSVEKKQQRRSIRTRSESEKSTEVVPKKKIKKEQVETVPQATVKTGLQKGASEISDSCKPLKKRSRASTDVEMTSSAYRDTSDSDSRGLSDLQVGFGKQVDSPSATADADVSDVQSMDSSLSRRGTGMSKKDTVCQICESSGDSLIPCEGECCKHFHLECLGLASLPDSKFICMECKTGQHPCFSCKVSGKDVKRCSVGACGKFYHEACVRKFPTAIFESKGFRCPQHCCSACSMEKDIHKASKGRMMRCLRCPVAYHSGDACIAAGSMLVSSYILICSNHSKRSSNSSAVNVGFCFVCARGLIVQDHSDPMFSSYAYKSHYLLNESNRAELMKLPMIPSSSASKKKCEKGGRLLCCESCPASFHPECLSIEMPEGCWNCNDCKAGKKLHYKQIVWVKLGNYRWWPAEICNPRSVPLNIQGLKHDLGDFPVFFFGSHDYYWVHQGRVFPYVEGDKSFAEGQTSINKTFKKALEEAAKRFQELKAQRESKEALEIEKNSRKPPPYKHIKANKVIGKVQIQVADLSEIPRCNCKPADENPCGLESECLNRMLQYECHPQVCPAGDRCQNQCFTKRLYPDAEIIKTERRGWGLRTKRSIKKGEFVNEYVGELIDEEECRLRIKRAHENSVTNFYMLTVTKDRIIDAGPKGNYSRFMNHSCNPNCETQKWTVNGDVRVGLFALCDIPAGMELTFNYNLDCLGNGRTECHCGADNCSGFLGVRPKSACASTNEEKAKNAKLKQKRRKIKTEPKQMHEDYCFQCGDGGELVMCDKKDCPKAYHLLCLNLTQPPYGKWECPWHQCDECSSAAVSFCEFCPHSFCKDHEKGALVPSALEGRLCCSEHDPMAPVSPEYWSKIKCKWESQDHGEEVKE
In words: Binding affinity to human recombinant NSD3 PWWP1 domain assessed as dissociation constant.

For assay [9], the target named is T1, Histone-lysine N-methyltransferase NSD2. Description: Binding affinity to NSD2 PWWP1 domain (unknown origin) assessed as dissociation constant.
Assay [10] deals with T2, Histone-lysine N-methyltransferase, H3 lysine-36 specific. Description: Inhibition of human recombinant NSD1 ([…] residues) expressed in Escherichia coli BL21 (DE3) incubated for 4 hrs by scintillation/filter assay.
Assay [11] deals with T4, Histone-lysine N-methyltransferase NSD3. In words: Inhibition of human recombinant NSD3 ([…] residues) expressed in Escherichia coli BL21 (DE3) incubated for 4 hrs by scintillation/filter assay.
The target in assay [12] is T3, Histone-lysine N-methyltransferase NSD2 (Homo sapiens). Description: Induction of degradation of NSD2 in human U2OS cells assessed as maximum degradation relative to control. Format: cell-based.
Assay [13] addresses T1, Histone-lysine N-methyltransferase NSD2. In words: Induction of degradation of NSD2 in human U2OS cells. It is filed as cell-based.

T2 sequence (Q96L73 whole entry, the tested form may be a part): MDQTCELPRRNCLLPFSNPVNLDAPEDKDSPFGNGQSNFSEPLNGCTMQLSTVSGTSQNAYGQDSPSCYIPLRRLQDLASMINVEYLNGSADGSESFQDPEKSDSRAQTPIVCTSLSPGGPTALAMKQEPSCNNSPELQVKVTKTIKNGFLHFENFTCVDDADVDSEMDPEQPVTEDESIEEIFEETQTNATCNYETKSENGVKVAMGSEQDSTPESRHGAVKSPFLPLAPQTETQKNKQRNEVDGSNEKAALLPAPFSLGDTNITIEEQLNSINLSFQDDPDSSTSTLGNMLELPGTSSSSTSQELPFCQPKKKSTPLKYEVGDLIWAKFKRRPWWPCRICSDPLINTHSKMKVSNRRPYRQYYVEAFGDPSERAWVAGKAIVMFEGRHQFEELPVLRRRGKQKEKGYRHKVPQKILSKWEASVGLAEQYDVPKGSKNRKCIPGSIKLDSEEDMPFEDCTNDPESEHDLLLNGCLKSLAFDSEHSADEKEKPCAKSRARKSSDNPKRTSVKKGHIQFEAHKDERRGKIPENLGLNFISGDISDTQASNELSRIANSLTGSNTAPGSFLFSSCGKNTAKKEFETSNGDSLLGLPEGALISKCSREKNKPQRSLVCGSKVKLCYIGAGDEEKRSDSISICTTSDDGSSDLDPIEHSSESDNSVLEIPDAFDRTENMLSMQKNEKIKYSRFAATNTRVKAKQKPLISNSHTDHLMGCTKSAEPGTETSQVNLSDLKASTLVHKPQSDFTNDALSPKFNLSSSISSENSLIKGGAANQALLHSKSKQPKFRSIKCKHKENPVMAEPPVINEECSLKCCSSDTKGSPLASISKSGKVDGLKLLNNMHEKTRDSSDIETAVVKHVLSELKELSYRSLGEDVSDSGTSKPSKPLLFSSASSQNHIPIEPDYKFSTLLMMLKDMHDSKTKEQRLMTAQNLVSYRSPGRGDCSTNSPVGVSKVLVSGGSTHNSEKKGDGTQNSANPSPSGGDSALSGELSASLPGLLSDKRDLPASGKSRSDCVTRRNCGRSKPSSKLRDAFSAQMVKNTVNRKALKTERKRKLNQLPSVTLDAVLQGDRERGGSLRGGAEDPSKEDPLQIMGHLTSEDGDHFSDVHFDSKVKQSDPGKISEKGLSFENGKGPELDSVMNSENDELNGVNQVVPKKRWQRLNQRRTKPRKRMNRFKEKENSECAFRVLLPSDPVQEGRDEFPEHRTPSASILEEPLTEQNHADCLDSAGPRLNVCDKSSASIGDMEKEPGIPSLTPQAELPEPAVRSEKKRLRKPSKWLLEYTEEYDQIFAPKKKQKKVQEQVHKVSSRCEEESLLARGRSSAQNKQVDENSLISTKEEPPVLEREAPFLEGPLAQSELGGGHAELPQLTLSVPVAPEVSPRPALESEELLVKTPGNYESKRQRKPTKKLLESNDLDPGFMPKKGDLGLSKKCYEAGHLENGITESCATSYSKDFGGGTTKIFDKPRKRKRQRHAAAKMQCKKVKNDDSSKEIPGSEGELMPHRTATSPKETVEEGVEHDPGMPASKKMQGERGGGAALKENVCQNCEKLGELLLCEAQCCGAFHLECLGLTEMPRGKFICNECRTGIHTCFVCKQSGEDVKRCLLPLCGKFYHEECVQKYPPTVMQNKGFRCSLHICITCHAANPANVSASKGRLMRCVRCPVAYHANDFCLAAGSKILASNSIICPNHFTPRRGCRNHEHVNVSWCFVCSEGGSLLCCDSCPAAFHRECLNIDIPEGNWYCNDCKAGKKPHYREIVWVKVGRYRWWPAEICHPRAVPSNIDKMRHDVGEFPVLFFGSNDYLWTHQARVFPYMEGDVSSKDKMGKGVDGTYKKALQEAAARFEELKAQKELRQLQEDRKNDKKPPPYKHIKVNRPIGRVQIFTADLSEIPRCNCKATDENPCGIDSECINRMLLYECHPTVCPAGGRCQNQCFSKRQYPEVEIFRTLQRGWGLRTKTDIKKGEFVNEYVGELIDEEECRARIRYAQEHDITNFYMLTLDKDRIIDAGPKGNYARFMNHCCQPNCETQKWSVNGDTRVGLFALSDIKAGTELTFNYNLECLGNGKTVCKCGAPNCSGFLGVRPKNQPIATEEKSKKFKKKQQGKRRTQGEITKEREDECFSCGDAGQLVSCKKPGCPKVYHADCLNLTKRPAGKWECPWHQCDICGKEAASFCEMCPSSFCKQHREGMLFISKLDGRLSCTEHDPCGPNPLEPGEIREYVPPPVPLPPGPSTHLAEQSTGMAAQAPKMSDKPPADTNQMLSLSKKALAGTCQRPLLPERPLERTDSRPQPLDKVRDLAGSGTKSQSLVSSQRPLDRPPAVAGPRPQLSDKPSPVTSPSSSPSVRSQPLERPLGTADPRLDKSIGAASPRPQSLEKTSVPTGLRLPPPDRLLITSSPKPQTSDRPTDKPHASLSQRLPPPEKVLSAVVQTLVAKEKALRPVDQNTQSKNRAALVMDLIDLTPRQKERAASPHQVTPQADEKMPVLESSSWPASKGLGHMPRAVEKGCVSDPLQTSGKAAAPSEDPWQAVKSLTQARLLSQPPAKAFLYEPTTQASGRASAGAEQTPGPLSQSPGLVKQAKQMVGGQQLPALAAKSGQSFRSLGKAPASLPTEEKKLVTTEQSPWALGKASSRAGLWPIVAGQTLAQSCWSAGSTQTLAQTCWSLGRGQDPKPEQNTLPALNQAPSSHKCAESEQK
Histone-lysine N-methyltransferase NSD2 (Homo sapiens, UniProt O96028, E1099K), sequence (O96028 whole entry E1099K): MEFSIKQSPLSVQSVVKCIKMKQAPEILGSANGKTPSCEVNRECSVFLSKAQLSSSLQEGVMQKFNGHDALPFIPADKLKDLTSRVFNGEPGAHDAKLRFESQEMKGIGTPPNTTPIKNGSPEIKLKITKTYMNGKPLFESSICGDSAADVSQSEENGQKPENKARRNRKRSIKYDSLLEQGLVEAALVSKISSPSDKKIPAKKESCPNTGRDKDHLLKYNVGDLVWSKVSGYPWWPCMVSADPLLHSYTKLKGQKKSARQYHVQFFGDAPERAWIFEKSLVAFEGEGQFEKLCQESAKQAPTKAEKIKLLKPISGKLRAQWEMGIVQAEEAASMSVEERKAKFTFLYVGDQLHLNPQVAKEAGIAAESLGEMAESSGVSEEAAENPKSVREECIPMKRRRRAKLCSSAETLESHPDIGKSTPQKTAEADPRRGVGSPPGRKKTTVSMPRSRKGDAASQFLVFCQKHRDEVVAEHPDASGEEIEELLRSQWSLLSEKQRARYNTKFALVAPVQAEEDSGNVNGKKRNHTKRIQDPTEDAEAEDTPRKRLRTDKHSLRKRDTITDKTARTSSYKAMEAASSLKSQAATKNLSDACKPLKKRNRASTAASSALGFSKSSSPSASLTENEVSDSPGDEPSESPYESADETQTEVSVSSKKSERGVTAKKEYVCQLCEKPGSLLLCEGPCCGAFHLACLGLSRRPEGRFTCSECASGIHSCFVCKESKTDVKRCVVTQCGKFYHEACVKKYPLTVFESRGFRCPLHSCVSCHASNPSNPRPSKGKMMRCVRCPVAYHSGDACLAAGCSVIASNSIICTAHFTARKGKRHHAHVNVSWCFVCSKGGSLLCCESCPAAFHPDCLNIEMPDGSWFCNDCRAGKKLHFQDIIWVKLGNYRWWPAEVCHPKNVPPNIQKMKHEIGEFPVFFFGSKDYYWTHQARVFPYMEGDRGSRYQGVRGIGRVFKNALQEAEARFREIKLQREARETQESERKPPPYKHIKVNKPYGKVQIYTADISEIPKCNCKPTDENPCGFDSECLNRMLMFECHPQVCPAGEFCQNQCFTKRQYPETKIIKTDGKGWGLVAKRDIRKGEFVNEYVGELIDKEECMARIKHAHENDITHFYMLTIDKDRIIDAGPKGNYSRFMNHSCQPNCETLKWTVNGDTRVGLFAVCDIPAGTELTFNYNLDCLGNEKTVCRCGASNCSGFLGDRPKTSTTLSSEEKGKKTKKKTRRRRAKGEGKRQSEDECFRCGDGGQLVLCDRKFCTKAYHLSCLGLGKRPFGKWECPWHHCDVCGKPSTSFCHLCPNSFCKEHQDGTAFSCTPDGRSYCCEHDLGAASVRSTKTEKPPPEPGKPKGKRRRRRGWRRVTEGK
Histone-lysine N-methyltransferase NSD2 (Homo sapiens, UniProt O96028, T1150A), sequence (O96028 whole entry T1150A): as the sequence (O96028 whole entry E1099K) above, with K1099E, T1150A counted along it

`Cn1nnc2cc(NC(=O)Nc3cccc([N+](=O)[O-])c3)ccc21` had an IC50 in assay [1] of 8300 nM. For `O=C1c2c(O)ccc(O)c2C(=O)C2C(NCCNCCO)=CC=C(NCCNCCO)C12` (stereo not drawn), the Kd in [2] was 1200 nM.

As to `N#CSc1cc(O)c2nc(N)sc2c1`, the IC50 in assay [3] is < 20000 nM.

Turning to `O=C1C(Cl)=C(NCCN2CCOCC2)C(=O)c2ncccc21`, the figures for the IC50 in assay [4] and in assay [5] were 170 nM and 110 nM, respectively. The CC50 in the assay with U2OS is 270 nM. `Nc1ncnc2c1ncn2Cc1cc(-c2ccc(F)c(F)c2)ncc1N1CCC[C@](N)(COC2CC2)C1`: in assay [6], the IC50 was 214 nM.

With `C=CC(=O)Nc1cc(NC(=O)Nc2ccc3nnsc3c2)cc(C(=O)OC)c1`, the inhibition in assay [7] turned out to be 92%. Take `N#Cc1cccc(NC(=O)Nc2ccc3nnsc3c2)c1`: the inhibition in assay [7] amounted to 92%. `CCN(CC)CCCC(C)Nc1ccnc2cc(Cl)ccc12` (stereo not drawn) [CHLOROQUINE PHOSPHATE]: the Kd in assay [2] is 4700 nM.

`O=C(CCCC[C@@H]1SC[C@@H]2NC(=O)N[C@@H]21)NCCOCCOCCOCCOCCOCCOCCOCCOCCOCCOCCOCCNC(=O)c1ccc(NC(=O)c2ccc(CN(C(=O)c3ccc4c(c3)OCC(=O)N4)C3CC3)cc2)cc1`: the Kd in assay [8] and in assay [9] was 46 nM in each case. For `COc1cc2nc(N3CCCN(C)CC3)nc(NC3CCN(Cc4ccccc4)CC3)c2cc1OC`, the IC50 in assay [10] was 112000 nM; in assay [11], 95000 nM. With `NCCCCCCNC(=O)c1ccc(NC(=O)c2ccc(CN(C(=O)c3ccc4c(c3)OCC(=O)N4)C3CC3)cc2)cc1`, the Emax in assay [12] worked out at 79%. The compound also returned an EC50 in assay [13] of 350 nM. With `O=C(Nc1cccc([N+](=O)[O-])c1)Nc1ccc2nnsc2c1`, the inhibition in [7] came to 96%. In the case of `CCN(CC)CCCC(C)Nc1c2ccc(Cl)cc2nc2ccc(OC)cc12` (stereo not drawn) [QUINACRINE DIHYDROCHLORIDE], the dissociation constant Kd in assay [2] turned out to be 1400 nM.
